Test results taken from patent publication US12612424B2, “HPK1 inhibitors and uses thereof” (Regor Pharmaceuticals, Inc., priority 2019, dated 2026).

Columns and labels:
HPK1 = HPK1 (Homo sapiens, UniProt Q92918); test: HPK1 biochemical assay (ADP-GLO Kinase Assay); conditions: B*: testing performed in a first testing facility; read-out: HPK1 IC50 (nM) Relative, B*
How it was run: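 HPK1 (0.6 ng/μL final) activity was followed with MBP substrate and 10 μM ATP in Tris pH 7.5/MgCl2/BSA/DTT buffer, measured by ADP-Glo luminescence. Compounds were tested as 3-fold dilutions from 10 μM. IC50 came from a three-parameter logistic fit, with inhibition normalised to high/low controls.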

JAK3 = biological target: T1, JAK3 (Homo sapiens, UniProt P52333); test: JAK3 biochemical assay (ADP-GLO Kinase Assay); conditions: for IC50: B*: testing performed in a first testing facility, read-out: JAK3 IC50 (nM) Relative, B*; for JAKs/HPK1 IC50 Ratio, B*: ratio of JAK3 IC50 to HPK1 IC50, first testing facility
T1 construct: purchased Thermo fisher PV3855
How it was run: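 Luminescent ADP-Glo readout after a 60 min, 25 °C reaction of JAK3 (0.78 ng) on Poly(E4Y1) (0.2 μg/μL) at 4 μM ATP, Tris pH 7.5 buffer with MgCl2, BSA and DTT. Compounds tested 10 μM down to 0.508 nM in 3-fold steps; % inhibition normalised to DMSO and reference-compound controls, IC50 from three-parameter fit.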

T1 sequence (P52333 781-1124 limits assumed): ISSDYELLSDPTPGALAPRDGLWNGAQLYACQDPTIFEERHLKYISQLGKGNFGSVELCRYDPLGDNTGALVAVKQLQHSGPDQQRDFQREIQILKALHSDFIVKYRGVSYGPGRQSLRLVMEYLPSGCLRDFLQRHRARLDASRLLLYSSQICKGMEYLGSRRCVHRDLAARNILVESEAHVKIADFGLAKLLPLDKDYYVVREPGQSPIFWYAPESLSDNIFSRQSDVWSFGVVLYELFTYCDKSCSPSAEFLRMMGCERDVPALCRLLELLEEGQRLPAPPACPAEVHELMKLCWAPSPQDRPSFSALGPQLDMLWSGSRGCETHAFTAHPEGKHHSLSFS
Chain of HPK1 (Q92918 whole entry): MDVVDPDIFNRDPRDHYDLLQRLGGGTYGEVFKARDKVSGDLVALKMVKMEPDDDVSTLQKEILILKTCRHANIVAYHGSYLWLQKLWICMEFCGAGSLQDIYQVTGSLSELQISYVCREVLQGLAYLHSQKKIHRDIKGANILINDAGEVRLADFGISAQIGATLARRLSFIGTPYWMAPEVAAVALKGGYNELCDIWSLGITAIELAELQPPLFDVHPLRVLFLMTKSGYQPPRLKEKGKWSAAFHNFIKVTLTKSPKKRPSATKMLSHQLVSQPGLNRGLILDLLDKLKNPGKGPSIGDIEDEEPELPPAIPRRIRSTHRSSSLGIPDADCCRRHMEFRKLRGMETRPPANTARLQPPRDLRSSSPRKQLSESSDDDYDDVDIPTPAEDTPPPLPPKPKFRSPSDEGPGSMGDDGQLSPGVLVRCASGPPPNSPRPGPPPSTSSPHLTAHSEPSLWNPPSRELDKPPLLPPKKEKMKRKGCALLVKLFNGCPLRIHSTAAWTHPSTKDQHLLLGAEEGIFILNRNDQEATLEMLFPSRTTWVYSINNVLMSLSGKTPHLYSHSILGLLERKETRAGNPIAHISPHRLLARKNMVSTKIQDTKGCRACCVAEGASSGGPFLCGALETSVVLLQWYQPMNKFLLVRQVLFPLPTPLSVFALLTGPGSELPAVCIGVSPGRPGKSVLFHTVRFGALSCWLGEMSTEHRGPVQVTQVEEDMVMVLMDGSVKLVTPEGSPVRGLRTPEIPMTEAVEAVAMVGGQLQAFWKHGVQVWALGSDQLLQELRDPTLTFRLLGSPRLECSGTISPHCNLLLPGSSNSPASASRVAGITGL

Compound | IC50 (HPK1) | IC50 (JAK3) | JAKs/HPK1 IC50 Ratio, B* (JAK3)
COc1cc2c(cc1Nc1ncc(Cl)c(N3CC(C)(CC(=O)O)c4cc(F)ccc43)n1)CN(C)CC2 (stereo not drawn) [Example 150, 2-(1-(5-Chloro-2-((6-methoxy-2-methyl-1,2,3,4-tetrahydroisoquinolin-7-yl)amino)pyrimidin-4-yl)-5-fluoro-3-methylindolin-3-yl)acetic acid] | ≤ 100 nM | 100 to 500 nM | 171
COc1cc2c(cc1Nc1ncc(Cl)c(N3CC(C)(CC(=O)O)c4ccc(F)cc43)n1)CN(C)CC2 (stereo not drawn) [Example 151] | ≤ 100 nM | ≤ 100 nM | 187
COc1cc2c(cc1Nc1ncc(Cl)c(N3CC(C)(CC(=O)O)c4cc(F)c(F)cc43)n1)CN(C)CC2 (stereo not drawn) [Example 154] | ≤ 100 nM | 100 to 500 nM | 430
CN1CCc2cc(F)c(Nc3ncc(Cl)c(N4CC(C)(CC(=O)O)c5ccccc54)n3)cc2C1 (stereo not drawn) [Example 156] | ≤ 100 nM | ≤ 100 nM | 29
CCN1CCc2cc(OC)c(Nc3ncc(Cl)c(N4CC(C)(CC(=O)O)c5ccccc54)n3)cc2C1 (stereo not drawn) [Example 157, 2-(1-(5-Chloro-2-((2-ethyl-6-methoxy-1,2,3,4-tetrahydroisoquinolin-7-yl)amino)pyrimidin-4-yl)-3-methylindolin-3-yl)acetic acid] | ≤ 100 nM | 100 to 500 nM | 176
COc1cc2c(cc1Nc1ncc(Cl)c(N3CC(C)(CC(=O)O)c4ccccc43)n1)CN(C(C)C)CC2 (stereo not drawn) [Example 158, 2-(1-(5-Chloro-2-((2-isopropyl-6-methoxy-1,2,3,4-tetrahydroisoquinolin-7-yl)amino)pyrimidin-4-yl)-3-methylindolin-3-yl)acetic acid] | ≤ 100 nM | 100 to 500 nM | 192
COc1cc2c(cc1Nc1ncc(Cl)c(N3CC(C)(CC(=O)O)c4ccccc43)n1)CN(C)C2 (stereo not drawn) [Example 159, 2-(1-(5-Chloro-2-((6-methoxy-2-methylisoindolin-5-yl)amino)pyrimidin-4-yl)-3-methylindolin-3-yl)acetic acid] | ≤ 100 nM | ≤ 100 nM | 71
COc1cc2c(cc1Nc1ncc(Cl)c(N3CC(C)(CC(=O)O)c4ccccc43)n1)CNCC2 (stereo not drawn) [Example 160, 2-(1-(5-Chloro-2-((6-methoxy-1,2,3,4-tetrahydroisoquinolin-7-yl)amino)pyrimidin-4-yl)-3-methylindolin-3-yl)acetic acid methanesulfonic acid] | ≤ 100 nM | ≤ 100 nM | 97
COc1cc2c(cc1Nc1ncc(Cl)c(-c3cn(CC(=O)O)c4ccccc34)n1)CN(C)CC2 [Example 161] | ≤ 100 nM | 500 to 1000 nM | 510
COc1cc2c(cc1Nc1ncc(Cl)c(-c3nn(CC(=O)O)c4ccccc34)n1)CN(C)CC2 [Example 162, 2-(3-(5-Chloro-2-((6-methoxy-2-methyl-1,2,3,4-tetrahydroisoquinolin-7-yl)amino)pyrimidin-4-yl)-1H-indazol-1-yl)acetic acid] | ≤ 100 nM | > 1000 nM | 415
COc1cc2c(cc1Nc1nccc(N3CC(C(=O)O)c4ccccc43)n1)CN(C)CC2 (stereo not drawn) [Example 163, 1-(2-((6-Methoxy-2-methyl-1,2,3,4-tetrahydroisoquinolin-7-yl)amino)pyrimidin-4-yl)indoline-3-carboxylic acid] | ≤ 100 nM | > 1000 nM | 456
COc1cc2c(cc1Nc1ncc3cc(C#N)n(-c4ccccc4)c3n1)CN(C)CC2 [Example 164, 2-((6-Methoxy-2-methyl-1,2,3,4-tetrahydroisoquinolin-7-yl)amino)-7-phenyl-7H-pyrrolo[2,3-d]pyrimidine-6-carbonitrile] | ≤ 100 nM | 500 to 1000 nM | 306
COc1cc2c(cc1Nc1ncc(Cl)c(N3CC(C(=O)O)C4(CCCCC4)C3)n1)CN(C)CC2 (stereo not drawn) [Example 167, 2-(5-Chloro-2-((6-methoxy-2-methyl-1,2,3,4-tetrahydroisoquinolin-7-yl)amino)pyrimidin-4-yl)-2-azaspiro[4.5]decane-4-carboxylic acid] | ≤ 100 nM | > 1000 nM | 995
COc1cc2c(cc1Nc1ncc(Cl)c(N3CC(C(=O)O)C4(CCCC4)C3)n1)CN(C)CC2 (stereo not drawn) [Example 169, 2-(5-Chloro-2-((6-methoxy-2-methyl-1,2,3,4-tetrahydroisoquinolin-7-yl)amino)pyrimidin-4-yl)-2-azaspiro[4.4]nonane-4-carboxylic acid] | ≤ 100 nM | > 1000 nM | 1482
